# Read-outs that look alike come from different tables or passages of the source.
# Key:
# human EP2 receptor [1] = target: T1, human EP2 receptor (Homo sapiens, UniProt P43116); assay: cAMP production in HEK cells stably expressing the human EP2 receptor; format: cell-based; details: 15 min stimulation, 4 experiments, logarithm of EC50
# T1 construct: expressed in transfected cells; host or cells: HEK cells (HEK-EP2)
# Method: The following describes an in vitro assay to determine the effect of compounds on cyclase production, that is, to determine their functional efficacy at the EP2 receptor.
# HEK cells stably expressing the human EP2 receptor were used for these assays. HEK-EP2 cells were cultured in 96-well, poly-L-lysine coated plates at a density of 50,000 cells/well, and grown to confluence in humidified […]/5% CO2 at 37° C. Culture medium was DMEM supplemented with 10% foetal bovine serum, 100 U/ml penicillin, […] streptomycin, 2.5 μg/ml fungizone, 2 mM glutamine, 250 μg/ml geneticin and 200 μg/ml zeocin.
# On reaching confluence, culture media was rinsed off using DMEM with no additions, before 175 μl assay buffer (DMEM containing 1 mM 3-isobutyl-1-methylxanthine and 3 μM indomethacin) was added to each well. This was allowed to incubate for 1 hr before the cells were stimulated with the test compounds (in triplicate) at final concentrations of 10^−9M to 10^−5M for 15 minutes. The assay was terminated by the addition of 25 μl 1M hydrochloric acid. Plates were then frozen for a minimum of 12 hours or until required for radioligand displacement assay.
# Plates were thawed quickly at 37° C., and neutralised with 25 μl 1M sodium hydroxide. 30 μl of supernatant was transferred to 96-well Millipore (MAFNOB) plates coated with 0.1% Polyethylenimine. These supernatants were diluted by addition of 90 μl cAMP assay buffer (50 mM Tris, 5 mM EDTA, pH 7.0). A cAMP standard curve (10^−11M to 10^−5M) was constructed. 15 μl of 3′:5′-cAMP-dependent protein kinase (final concentration 8 μg/well), and 15 μl [^3H]-cAMP (final concentration 2 nM/well) were added to each well.
# Plates were incubated on ice for 2 hours, before bound and free radiolabel were separated by vacuum filtration harvesting on the Millipore manifold, using ice cold water as the termination buffer. […]
# Radioactivity was determined using the Microbeta Trilux scintillation counter. cAMP accumulation was determined from the standard curve, and the values plotted as pmoles cAMP/well.
# human EP3 receptor = target: T2, human EP3 receptor (Homo sapiens, UniProt P43115); assay: Radioligand ([3H]PGE2) competition displacement binding, human EP3 receptor membranes; details: human EP3, [3H]PGE2 displacement
# T2 construct: expressed in transfected cells
# T2 sequence (P43115 1-390): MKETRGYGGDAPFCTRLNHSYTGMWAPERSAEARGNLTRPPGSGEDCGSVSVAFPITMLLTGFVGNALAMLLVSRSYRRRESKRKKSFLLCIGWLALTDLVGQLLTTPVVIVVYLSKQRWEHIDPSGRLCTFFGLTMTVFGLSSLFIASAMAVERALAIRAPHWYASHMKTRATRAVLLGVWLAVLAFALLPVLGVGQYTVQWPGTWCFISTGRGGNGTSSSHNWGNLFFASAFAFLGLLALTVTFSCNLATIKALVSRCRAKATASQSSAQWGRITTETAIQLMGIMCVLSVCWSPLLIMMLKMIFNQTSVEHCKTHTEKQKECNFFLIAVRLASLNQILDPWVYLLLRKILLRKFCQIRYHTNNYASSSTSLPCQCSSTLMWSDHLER
# Method: (§1) Membranes were prepared from cells stably transfected with human EP receptor cDNA. In brief, cells were cultured to confluency, scraped from culture flasks, and centrifuged (800 g, 8 minutes, 4° C.). Cells were twice washed in ice cold homogenisation buffer containing 10 mM Tris-HCl, 1 mM EDTA.2Na, 250 mM sucrose, 1 mM PMSF, 0.3 mM indomethacin, pH 7.4, homogenised and re-centrifuged as before. The supernatant was stored on ice and pellets re-homogenised and re-spun. Supernatants were pooled and centrifuged at 40000 g, 10 minutes, 4° C. Resultant membrane pellets were stored at −80° C. until use.
# (§2) For assay, membranes expressing human EP4, EP3, EP2 or EP1 receptors were incubated in Millipore (MHVBN45) plates containing assay buffer, radiolabelled [^3H]PGE2 and 0.1 to 10 000 nM concentrations of compounds. Incubations were performed at suitable temperatures and for suitable times to allow equilibrium to be reached. Non-specific binding was determined in the presence of 10 uM PGE2. Bound and free radiolabel was separated by vacuum manifold filtration using appropriate wash buffers, and bound radiolabel was determined by scintillation counting. Constituents of each of the buffers are included in table 4 below.
# (§3) The affinity or pKi of each compound for each receptor was calculated from the concentration causing 50% radioligand displacement (IC50) using the Cheng-Prusoff equation: […]
# (§4) This approach follows that set out in Kenakin, T. P., Pharmacologic analysis of drug receptor interaction. Raven Press, New York, 2nd edition.
# human myometrium = assay: Electrical field stimulation (EFS) induced contractions of human myometrial strips
# Method: The following describes an in vitro functional assay, using human myometrial smooth muscle, to determine the affinity of the test compounds at the EP2 receptor in human tissues.
# Sections of human myometrium were prepared from samples of surgically removed uterus longitudinal myometrial muscle strips (2 mm wide by 10 mm long) were then cut and suspended between stainless steel hooks in organ chambers containing oxygenated (95% O2/5% CO2) Krebs solution at 37° C. The composition of the Krebs solution was as follows: NaCl (118.2 mM), KCl (4.69 mM), MgSO4.7H2O (1.18 mM), KH2PO4 (1.19 mM), glucose (11.1 mM), NaHCO3 (25.0 mM), CaCl2.6H2O (2.5 mM), indomethacin 3×10^−6M.
# Tissues were placed under a tension equivalent to 25 mN and left overnight at room temperature. The following day the tissues were maintained at 37° C., washed and placed under a tension of 15 mN then allowed to equilibrate for a period of at least 30 minutes. Responses were recorded using isometric transducers coupled to an Apple Macintosh computer via a MacLab interface. After 60 minutes, the muscle sections of the human myometrium were stimulated electrically (15 ms pulse width, for 10 s every 100 s at 15V and 0.5-40 Hz) using parallel platinum wire electrodes and a Multistim D330 pulse stimulator. Upon electrical stimulation, the strips of human myometrial smooth muscle responded with a rapid contraction. Once the response to electrical stimulation had stabilised (stimulated responses differed by no more than 10%), the strips were exposed to increasing concentrations of test compounds (1×10^−7 to 1×10^−4M, incubated for at least 15 minutes at each concentration). At the end of the experiment, application of sodium nitroprusside (SNP, a nitric oxide donor that causes smooth muscle relaxation) (1×10^−4M) was used to produce a standard relaxatory response. To determine the affinity of the compounds, the concentration of test compound required to produce half-maximal effects (EC50) was calculated, as was the maximum response (calculated as a percentage of the standard response produced with SNP).
# [2] = test system: TNFα production by LPS-stimulated monocytes; assay: Monocyte assay: LPS-induced TNFα secretion; format: cell-based, human; details: Table 11/FIG. 14, mean of three donors, LPS 100 ng/ml, 24 h
# Source text: Monocytes are peripheral mononuclear phagocytes that participate in inflammatory responses. TNFα production by monocytes plays an important role in inflammatory responses and can cause considerable tissue damage if the level remained unchecked. Inhibition of TNFα secretion by activated monocytes may provide an attractive therapy for the treatment of inflammatory conditions.
# A 96 well in vitro assay was established to determine the effects of test compounds on LPS-induced TNFα secretion by human peripheral blood monocytes. The level of TNFα in assay supernatants was quantified using a standard sandwich ELISA.
# Human peripheral blood mononuclear cells from healthy volunteers were isolated from whole blood by Ficoll-Hypaque density centrifugation and adherence to plastic. The non-adherent lymphocyte fraction was used to set up the lymphocyte assay and the adherent monocytes were then recovered by scraping and subsequently used in the monocyte assay.
# For the monocyte assay, the cells were plated onto 96-well plates and pre-treated for 1 hour at 37° C./5% CO2 with the test compound (Peak 1, mixture 1 acid; Peak 1, mixture 2 acid; AH-13205 racemate), followed by the addition of LPS (100 ng/ml) to initiate the reaction. The plate was incubated for 24 hours and supernatants were recovered for the measurement of TNFα production by ELISA.
# human EP2 receptor [3] = target: T1, human EP2 receptor; assay: Radioligand ([3H]PGE2) competition displacement binding, human EP2 receptor membranes; details: for pKi EP2: human EP2, [3H]PGE2 displacement, Cheng-Prusoff, mean of 4 experiments
# Method: as §1, §2, §3, §4
# human EP4 receptor = target: T3, human EP4 receptor (Homo sapiens, UniProt P35408); assay: Radioligand ([3H]PGE2) competition displacement binding, human EP4 receptor membranes; details: human EP4, [3H]PGE2 displacement
# T3 construct: expressed in transfected cells
# Method: as §1, §2, §3, §4
# [4] = test system: interferon gamma release by lymphocytes; assay: Lymphocyte assay: interferon gamma release; format: cell-based, human; details: FIG. 11, two donors
# Source text: Lymphocytes are mononuclear leukocytes, which participate in specific immune responses to foreign antigens and in the manifestation of auto-immune diseases. T lymphocytes produce IL-2, a key factor for lymphocyte activation and proliferation, in response to antigen stimulation via the CD3-T cell receptor complex and the pathway involved in this response is the NF-AT. […] A lymphocyte assay was designed to model this response and to determine the effect of test compound on IL-2 production by anti-CD3-stimulated T cells isolated from peripheral blood. This assay uses a sub-optimal dose of an anti-CD3 monoclonal antibody (OKT3, 25 ng/ml) immobilised to a 96-well plate to stimulate a T cell response. The level of IL-2 released into the cell culture supernatants was quantified using a standard sandwich ELISA. Similarly, other cytokines such as TNFα and IFN-γ can also be measured in the same assay. […]
# Lymphocytes were then seeded to a 96-well plate pre-coated with anti-CD3 monoclonal antibody (OKT3) at 25 ng/ml and immediately, the test compounds (Peak 1, mixture 1 acid; Peak 1, mixture 2 acid; AH-13205 racemate; PGE2) in appropriate dilutions were added to corresponding wells according to the experimental design. […] The levels of IFN-γ was assessed by using the ProteoPlex 16 well human cytokine array assay kit according to the manufacturer's instruction.
# T1 sequence (P43116 whole entry): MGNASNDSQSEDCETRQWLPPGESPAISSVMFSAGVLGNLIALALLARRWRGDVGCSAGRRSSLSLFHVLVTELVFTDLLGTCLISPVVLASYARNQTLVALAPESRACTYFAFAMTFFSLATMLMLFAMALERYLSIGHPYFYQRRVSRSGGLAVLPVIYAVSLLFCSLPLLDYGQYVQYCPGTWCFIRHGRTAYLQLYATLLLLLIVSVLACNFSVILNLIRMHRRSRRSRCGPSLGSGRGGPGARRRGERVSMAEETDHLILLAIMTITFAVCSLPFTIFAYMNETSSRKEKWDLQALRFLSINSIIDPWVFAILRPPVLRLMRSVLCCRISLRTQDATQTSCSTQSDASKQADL
# T3 sequence (P35408 whole entry): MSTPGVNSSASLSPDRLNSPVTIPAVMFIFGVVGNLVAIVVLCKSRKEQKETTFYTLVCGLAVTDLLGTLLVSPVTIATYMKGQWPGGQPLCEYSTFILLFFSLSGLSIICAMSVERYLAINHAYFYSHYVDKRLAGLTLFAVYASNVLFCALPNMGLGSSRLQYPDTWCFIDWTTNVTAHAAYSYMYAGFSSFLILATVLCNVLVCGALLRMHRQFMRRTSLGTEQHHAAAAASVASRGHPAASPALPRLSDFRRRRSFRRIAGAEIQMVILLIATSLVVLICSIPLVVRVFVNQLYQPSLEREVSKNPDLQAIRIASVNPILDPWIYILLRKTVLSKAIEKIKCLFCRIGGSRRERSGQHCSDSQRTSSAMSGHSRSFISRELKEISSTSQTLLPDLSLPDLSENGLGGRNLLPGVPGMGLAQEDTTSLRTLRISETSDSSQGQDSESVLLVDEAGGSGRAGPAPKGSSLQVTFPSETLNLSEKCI
SMILES,"Mean Log (EC50), cAMP production (human EP2 receptor [1])",pKi EP3 (human EP3 receptor),effect on EFS-evoked contractions (words) (human myometrium),pKi EP2 (human EP2 receptor [3]),pKi EP4 (human EP4 receptor),other results
"CCCCC[C@@H](O)c1ccc([C@H]2CCC(=O)[C@@H]2CCCCCCC(=O)O)cc1 (single isomer, unassigned; peak 1) [Peak 1, Mixture 2 acid]",−7.25,4.8,concentration-dependent inhibition,6.9,5.1,"maximum inhibition of EFS-induced contractions (human myometrium): 57±2%; pEC50, inhibition of EFS-evoked response (human myometrium; 1×10^-7 to 1×10^-4 M): 5.3±0.1; Mean Log (EC50), inhibition of TNFα production by LPS-stimulated monocytes ([2]; logarithm of EC50): −5.172; EC50 ([2]; read-out: Mean EC50, inhibition of TNFα production by LPS-stimulated monocytes): 6.73 µM; selectivity for EP2 among the stereoisomers (human EP2 receptor [3]; from Table 5 pKi values, EP2 versus other EP receptors): most selective"
"CCCCCC(O)c1ccc(C2CCC(=O)C2CCCCCCC(=O)O)cc1 (racemic) [AH13205, (±)-trans-2-[4-(1-hydroxyhexyl)phenyl]-5-oxo-cyclopentaneheptanoic acid, reference compound]",,,concentration-dependent inhibition,,,effect on EFS-evoked contractions (words) (human myometrium; listed as AH-13205): inhibit electrically-induced contractions
"CCCCC[C@H](O)c1ccc([C@@H]2CCC(=O)[C@H]2CCCCCCC(=O)O)cc1 (single isomer, unassigned; peak 2) [Peak 2, Mixture 1 acid]",−6.49,4.8,,5.8,4.5,
"CC(C)(C)NCC(O)c1cc(O)cc(O)c1 (centres unmarked) [terbutaline, reference compound]",,,no significant inhibitory effect,,,
"CCCCC[C@@H](O)c1ccc([C@@H]2CCC(=O)[C@H]2CCCCCCC(=O)O)cc1 (single isomer, unassigned; peak 2) [Peak 2, Mixture 2 acid]",−6.39,4.7,,6.3,4.8,
"CCCCC[C@H](O)c1ccc([C@H]2CCC(=O)[C@@H]2CCCCCCC(=O)O)cc1 (single isomer, unassigned) [Peak 1, Mixture 1 acid]",,,concentration-dependent inhibition,,,effect on interferon gamma release [4]: concentration-dependently inhibit interferon gamma release
